These results are taken from ChEMBL document CHEMBL1201862, “PubChem BioAssay data set” (2004).

The nature of test [1]: NIH3T3 cell viability loss – ATP luminescence, mouse fibroblasts, counter-screen, dose response (AID 2010).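 Note: cells exposed to compound for about 90 hours before reading.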 It counts as functional, cell-based.
A short description of test [2]: Trypanosoma cruzi growth suppression in host cells – NIH3T3 host cells, beta-gal luminescence, confirmation (AID 2044).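 Note: intracellular parasites grown in NIH/3T3 mouse fibroblasts as host cells; luminescent beta-galactosidase reporter signal from transgenic T. cruzi replicating inside host cells; inhibitors lower the luminescence signal.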 It counts as functional, cell-based.
Test [3] addresses Cytochrome P450 2C9 (Homo sapiens, UniProt P11712).
Test [4] can be described thus: Luminescence Cell-Based Dose Response HTS to Identify Activators of Luciferase Translation or Activity in H4 […] Cells. [Related pubchem assays: 1829 (Project Summary), 1814 (Primary HTS)]. It counts as functional.
The nature of test [5]: Luminescence Cell-Based Dose Confirmation HTS to Identify Activators of 5'UTR Stem-Loop Driven Alpha-Synuclein mRNA Translation in H4 Neuroglioblastoma Cells. [Related pubchem assays: 1829 (Project Summary), 1814 (Primary HTS)]. It counts as functional.
The subject of test [6] is H4. Briefly: Luminescence Cell-Based Dose Response HTS to Identify Activators of 5'UTR Stem-Loop Driven Prion Protein mRNA Translation in H4 Neuroglioblastoma Cells. [Related pubchem assays: 1829 (Project Summary), 1814 (Primary HTS)]. To be noted: Homo sapiens. It counts as functional.
In test [7] the test system is Streptococcus sp. 'group A'. Briefly: Streptococcus pyogenes SK(-)GAS viability under kanamycin – luminescence, BacTiterGlo, confirmation, counter-screen for streptokinase expression inhibitor project, dose response (AID 1900). The class given is functional, organism-based. A general note: The purpose of a counterscreen is to sort out artefacts and off-target activity.

Test [8] deals with Streptococcus. Description: GAS UMAA2166 growth inhibition – luminescence, BacTiterGlo, counter-screen for streptokinase expression inhibitor project, dose response (AID 1915).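 Note: potency for reduction of bacterial viability or growth.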 The class given is functional, organism-based.
The target of test [9] is Cytochrome P450 3A4 (Homo sapiens, UniProt P08684).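 Note: CYP3A4 tested as one member of a cytochrome P450 panel screen.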
Cytochrome P450 3A4, sequence (P08684 whole entry): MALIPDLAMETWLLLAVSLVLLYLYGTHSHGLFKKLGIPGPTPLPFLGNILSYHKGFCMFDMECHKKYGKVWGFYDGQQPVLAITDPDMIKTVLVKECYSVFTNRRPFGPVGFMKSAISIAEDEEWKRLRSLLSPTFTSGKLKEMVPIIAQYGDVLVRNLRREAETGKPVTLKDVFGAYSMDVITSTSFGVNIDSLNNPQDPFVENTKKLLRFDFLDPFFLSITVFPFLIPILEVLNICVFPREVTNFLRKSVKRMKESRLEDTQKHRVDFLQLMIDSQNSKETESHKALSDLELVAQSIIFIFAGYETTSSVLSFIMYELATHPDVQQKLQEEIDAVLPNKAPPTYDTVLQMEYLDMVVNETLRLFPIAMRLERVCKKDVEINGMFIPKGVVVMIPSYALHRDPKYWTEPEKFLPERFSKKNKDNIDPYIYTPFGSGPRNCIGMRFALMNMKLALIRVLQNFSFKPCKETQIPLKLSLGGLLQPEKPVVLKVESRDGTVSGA
For test [10], the target named is T1, Corticotropin-releasing factor receptor 2/Corticotropin-releasing factor-binding protein (Homo sapiens, UniProt P24387+Q13324).
T1 sequence (Q13324 whole entry): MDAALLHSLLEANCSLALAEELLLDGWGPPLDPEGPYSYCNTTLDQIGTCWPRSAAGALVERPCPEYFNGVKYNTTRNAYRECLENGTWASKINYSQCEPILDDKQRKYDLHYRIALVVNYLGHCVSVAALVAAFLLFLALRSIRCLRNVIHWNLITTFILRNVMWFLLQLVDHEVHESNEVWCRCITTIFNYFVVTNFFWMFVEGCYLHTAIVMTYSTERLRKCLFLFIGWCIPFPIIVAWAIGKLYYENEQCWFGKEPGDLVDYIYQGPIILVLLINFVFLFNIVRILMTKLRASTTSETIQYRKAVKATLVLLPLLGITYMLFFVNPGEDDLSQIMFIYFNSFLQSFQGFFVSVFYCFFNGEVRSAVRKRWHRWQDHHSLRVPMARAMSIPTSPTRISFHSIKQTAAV
T1 sequence (P24387 whole entry): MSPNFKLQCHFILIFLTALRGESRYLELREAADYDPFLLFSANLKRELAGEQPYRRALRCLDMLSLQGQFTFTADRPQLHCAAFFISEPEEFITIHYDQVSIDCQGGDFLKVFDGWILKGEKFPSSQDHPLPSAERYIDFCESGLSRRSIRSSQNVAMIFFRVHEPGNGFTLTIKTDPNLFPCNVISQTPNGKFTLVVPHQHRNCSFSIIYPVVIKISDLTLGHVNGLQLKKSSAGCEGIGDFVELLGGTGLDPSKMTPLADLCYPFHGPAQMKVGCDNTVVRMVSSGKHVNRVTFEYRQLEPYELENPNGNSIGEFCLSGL
Description: activators of CRF receptor 2 with binding protein – uHTS hits, confirmation (AID 602473). The class given is functional. To be noted: read-out: EC50_Mean.

As usually defined, the AC50 is the concentration giving half of the maximal activity seen.

Active and inactive are the calls of the source. Cut-off read from the data, not from the text of the source, for most assays here: actives have a measured EC50 and inactives only a lower limit. Some results are limits rather than exact numbers.

Cytochrome P450 2C9, sequence (P11712 whole entry): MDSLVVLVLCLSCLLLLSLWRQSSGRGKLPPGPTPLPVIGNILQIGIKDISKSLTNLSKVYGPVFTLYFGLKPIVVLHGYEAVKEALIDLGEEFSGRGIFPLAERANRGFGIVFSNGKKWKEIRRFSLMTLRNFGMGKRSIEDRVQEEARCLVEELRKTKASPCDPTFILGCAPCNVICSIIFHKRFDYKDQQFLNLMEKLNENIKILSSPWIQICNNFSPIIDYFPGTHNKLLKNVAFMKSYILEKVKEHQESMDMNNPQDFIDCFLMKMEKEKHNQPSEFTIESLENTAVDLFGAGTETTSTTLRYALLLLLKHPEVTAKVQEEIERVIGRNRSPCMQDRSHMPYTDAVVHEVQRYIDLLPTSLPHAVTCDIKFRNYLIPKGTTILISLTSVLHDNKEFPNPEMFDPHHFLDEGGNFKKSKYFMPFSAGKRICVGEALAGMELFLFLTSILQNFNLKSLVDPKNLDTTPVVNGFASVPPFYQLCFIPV

Turning to `Cc1cccc2nc(-c3ccccc3)nc(N3CCC(O)(c4ccc(Cl)cc4)CC3)c12`, the values for the EC50 in test [1] and in test [2] were > 60 µM (not active) and 0.301 µM (active), respectively.

With `Cc1nc(S(=O)(=O)N(C)c2ccccc2)c(C#N)c(C)c1Cl`, the AC50 in test [3] was 17.8 µM (inconclusive).

Regarding `Nc1nonc1-c1noc(CCCN2C(=O)c3ccccc3C2=O)n1`, the EC50 in test [4] is 12.1 µM (active); in test [5], 12.9 µM (active); in [6], 15.7 µM (active).

Turning to `CC(c1ccon1)N(C)Cc1c[nH]nc1-c1ccc(-c2ccccc2)cc1` (stereo not drawn), the EC50 was 30.5 µM (active) in test [4], > 120 µM (not active) in test [5] and > 120 µM (not active) in [6].

As for `CCCCn1nc(C(=O)Nc2nc3c(s2)CCCC3)c2ccccc2c1=O`, the EC50 in test [1] is > 60 µM (inconclusive); in test [2], 1.73 µM (active).

For `CCc1nnc(NC(=O)/C=C/c2ccco2)s1`, the EC50 is 54.5 µM (active) in test [4], 13.7 µM (active) in test [5] and 6.44 µM (active) in test [6].

As to `CC1CCN(CC(=O)Nc2cccc([N+](=O)[O-])c2)CC1`, in test [3], the AC50 is 15.8 µM (inconclusive).

On to `COc1cc(/C=C/C(=O)OCC(=O)c2c(N)n(C)c(=O)n(C)c2=O)ccc1OCC#N`, for which the EC50 in [7] was 7.23 µM (active); in [8] it was 4.1 µM (active).

As for `Cc1nn(C(C)C(=O)N2CCc3ccccc32)c(C)c1[N+](=O)[O-]` (stereo not drawn), the AC50 in test [9] was 17.8 µM (inconclusive).

For `O=C(Nc1ccc2c(c1)OCO2)N1CCN(c2ccccc2)CC1`, the figures for the EC50 in [4], in test [5] and in test [6] were 16.2 µM (active), > 120 µM (not active) and 10.3 µM (active), respectively.

As to `CS(=O)(=O)N(Cc1ccccc1)c1ccc(C(=O)N2CCOCC2)cc1`, in test [10], the EC50 is > 53 µM (inactive).

Consider `Cc1ccc(OCCn2cnc3ccccc3c2=O)c([N+](=O)[O-])c1`, for which the EC50 was 2.44 µM (active) in test [4] and 0.247 µM (active) in test [5].

In the case of `C=CCN=C(S)N1CCN(c2ncc3c(=O)c(C(=O)O)cn(CC)c3n2)CC1`, in test [3], the half-maximal activity concentration (AC50) is 0.224 µM (inconclusive).

In the case of `CCOC(=O)Cc1cc(-c2ccc(OC)cc2)nc2ccc3ccccc3c12`, the figures for the EC50 in [4], in [5] and in [6] were 12.6 µM (active), 9.64 µM (active) and 15.6 µM (active), respectively.

Take `COc1ccc(C(=N)NOC(=O)c2c(-c3ccccc3Cl)noc2C)cc1OC`: the figures for the EC50 in test [1] and in test [2] were 10.7 µM (active) and 1.49 µM (active), respectively.

For `COC(=O)c1ccc(N2OC3(C)C=CC2CC3)cc1` (stereo not drawn), the EC50 in test [4] was 5.16 µM (active); in test [5], 9.96 µM (active); in test [6], 13.5 µM (active).

As for `CCOC(=O)C1CCN(c2nnc(N3CCCC3=O)s2)CC1`, the EC50 in test [4] is 6.58 µM (active); in test [5], 3.42 µM (active); in [6], 33 µM (active).

With `Cc1ccc(CN2C(=O)N/C(=C/c3cc(C)n(-c4ccccn4)c3C)C2=O)cc1`, the figures for the EC50 in test [4], in test [5] and in test [6] were 7.26 µM (active), 11.9 µM (active) and > 120 µM (not active), respectively.

Take `CCOC(=O)c1c(NC(=O)CSc2nnc(-c3ccncc3)n2Cc2ccco2)sc(C)c1C`: the EC50 in test [1] was > 60 µM (not active); in test [2] it was 2.9 µM (active).

Take `CN(CCNC(=O)C1CC(=O)N(c2ccc(F)c(Cl)c2)C1)Cc1ccccc1` (stereo not drawn): the EC50 in test [1] was > 60 µM (not active); in test [2], 0.22 µM (active).

For `Cc1ncc(CC(=O)n2cc(C(=O)c3cc(Cl)ccc3O)cn2)s1`, the EC50 in [4] was > 120 µM (not active); in test [5] it was 16.5 µM (active); in [6], 40.2 µM (active).

With `CC1CCC(=C(C#N)c2nc(-c3cc4ccccc4oc3=O)cs2)CC1` (stereo not drawn), the EC50 in test [4] is 0.106 µM (active).

For the compound `Cc1ccc(S(=O)(=O)Nc2ccc(N3CCN(C)CC3)nc2)cc1`, the results for the EC50 in test [1] and in test [2] were > 60 µM (not active) and 1.26 µM (active), respectively.

Regarding `COc1ccc(-c2cc(-c3ccccc3)c(C#N)c(SCC(=O)Nc3ncc(C)s3)n2)cc1`, the results for the EC50 in [1] and in [2] were > 60 µM (inconclusive) and > 60 µM (not active), respectively.

As to `Cc1ccc(N2CCN(c3ccc(C)cc3)C2c2cccnc2)cc1`, the EC50 in test [1] was > 60 µM (not active); in [2], 0.768 µM (active).

As for `CC1(C)CC(=O)c2cc(NC=C(C(=O)c3ccccc3)C(=O)c3ccccc3)c(=O)oc2C1`, the values for the EC50 in [4], in test [5] and in [6] were > 60 µM (not active), 15.6 µM (active) and > 120 µM (not active), respectively.

For `Nn1c(CSc2ccccn2)nc2ccccc2c1=O`, the EC50 in test [4] was 35.2 µM (active); in test [5], 42.9 µM (active); in test [6] it was 23.3 µM (active).

Turning to `CN(C)c1ccc(-c2nccc(Nc3ccc(F)cc3)n2)cc1`, the AC50 in test [3] is 0.631 µM (inconclusive).

Consider `Cc1cccc(CCN2CCN=C2Nc2ccccc2)c1`, for which, in test [10], the EC50 is 14 µM (active).

For the compound `O=C(c1c[nH]cc1-c1ccccc1)c1cccc2ccccc12`, the EC50 in test [1] was 4.49 µM (active); in test [2], 1.93 µM (active).

On to `Sc1ncnc2scc(-c3ccc(Cl)cc3)c12`, for which the results for the EC50 in [7] and in test [8] were 13.1 µM (active) and 47.4 µM (active), respectively.

Turning to `O=C(Nc1ccc2c[nH]nc2c1)c1ccc(Cl)c(S(=O)(=O)N2CCOCC2)c1`, the EC50 in test [4] is 42.2 µM (active); in test [5], 6.56 µM (active); in [6], 27.6 µM (active).

For the compound `COc1ccc(C(CNc2ccc(S(=O)(=O)N3CCCC3)cc2[N+](=O)[O-])N2CCCC2)cc1` (stereo not drawn), the EC50 was 31.8 µM (active) in [1] and 0.843 µM (active) in [2].

Turning to `CC(C)CC(=O)Nc1ccc(C(=O)COC(=O)Cc2n[nH]c(=O)c3ccccc23)cc1`, the EC50 in test [10] was 12.4 µM (active).

For `O=C(CCN1C(=O)S/C(=C\C=C\c2ccccc2)C1=O)Nc1ccc(O)cc1`, the EC50 was 0.155 µM (active) in test [4] and 8.5 µM (active) in test [6].

`COc1ccc2nc(N3CCN(C(=O)C4COc5ccccc5O4)CC3)sc2c1` (stereo not drawn): the EC50 in test [4] was 30.7 µM (active); in test [5], 4.45 µM (active); in test [6] it was 12.8 µM (active).

As for `S=C(NCc1ccco1)N1CCN(Cc2ccco2)CC1`, in test [3], the AC50 was 14.1 µM (inconclusive).

Take `CC1=C(C#N)C(Nc2ccc(Cl)cn2)(C(F)(F)F)C(=O)N1` (stereo not drawn): in test [9], the AC50 was 15.8 µM (inconclusive).

`CCN(CC)c1nc(C=Cc2ccc(N(C)C)cc2)c2nccnc2n1`: the EC50 in test [10] was 2.56 µM (active).

In the case of `O=C(COc1ccc(F)cc1)N(Cc1cccs1)C1CCS(=O)(=O)C1` (stereo not drawn), the EC50 in test [10] is > 53 µM (inactive).

As to `C/C(=N\NC(=S)Nc1cccc(C)c1)c1ccco1`, the EC50 in test [1] was > 60 µM (not active); in [2], 2.8 µM (active).

In the case of `O=C(O)c1cc2c(cc1S(=O)(=O)O)[C@H]1[C@@H](C3[C@H]2[C@@]2(Cl)C(Cl)=C(Cl)[C@@]3(Cl)C2(Cl)Cl)[C@]2(Cl)C(Cl)=C(Cl)[C@]1(Cl)C2(Cl)Cl` (stereo partly drawn), the AC50 in test [9] was 3.16 µM (inconclusive).

As to `COc1ccc(-c2c/c(=N/c3c(C)n(C)n(-c4ccccc4)c3=O)c3ccccc3o2)cc1`, the EC50 was 11.1 µM (active) in test [4], 11.1 µM (active) in test [5] and 2.02 µM (active) in [6].

For `COC(=O)c1ccc(-c2ccc(/C=N/N3C(=O)C4C5C=CC(CC5)C4C3=O)o2)cc1` (stereo not drawn), the EC50 in [4] is 19.5 µM (active); in test [5], 6.71 µM (active); in test [6] it was 18.9 µM (active).

Turning to `COc1ccc(/C=C(\NC(=O)c2ccccc2)C(=O)N/N=C/c2ccncc2)cc1`, the AC50 in [3] is 12.6 µM (active).

Regarding `CC(=N)/C(C#N)=C(/O)CSc1nnc(Nc2cccc(C)c2)s1`, the EC50 in [4] was 45.1 µM (active); in test [5], 10.1 µM (active); in [6], > 120 µM (not active).
